Reference: patent US10195156B2, “Compounds and compositions for intracellular delivery of agents” (ModernaTX, Inc., priority 2015, dated 2019)
“Also recorded” adds a separate entry of the source.

Columns and labels:
hEPO mRNA expression = experiment: Expression of hEPO in CD-1 mice; format: in vivo; conditions: for Lipid/MC3 hEPO CD-1 (mice): hEPO expression relative to MC3, CD-1 mice
Text: FIG. 12 is a set of graphs illustrating hEPO expression levels in CD-1 mice dosed with compounds of the disclosure, compared to MC3. PBS is used as control. […] In graphs A-C numbers 1-14 refer to compositions containing the following: 1: Compound 73, 2: Compound 80, 3: Compound 70; 4: Compound 81; 5: Compound 69; 6: Compound 82; 7: Compound 83; 8: Compound 62; 9: Compound 84; 10: Compound 85; 11: Compound 86; 12: Compound 87; 13: MC3; 14: PBS.
FIG. 13 is a graph showing hEPO levels (pg/mL) in CD-1 mice up to ˜25 h after administration of a nanoparticle composition containing compounds of the disclosure, compared to a composition containing MC3. Numbers 1-13 refer to compositions containing the following: 1: Compound 73, 2: Compound 80, 3: Compound 70; 4: Compound 81; 5: Compound 69; 6: Compound 82; 7: Compound 83; 8: Compound 62; 9: Compound 84; 10: Compound 85; 11: Compound 86; 12: Compound 87; 13: MC3. […]

[1] = tested on: luciferase (Luc) mRNA expression; experiment: Expression of Luc induced by sample formulations, whole-body bioluminescence after intravenous administration; format: in vivo
Procedure, shortened: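 Read-out is whole-body bioluminescence at 3, 6 and 24 h after a single intravenous dose of 0.5 mg/kg Luc mRNA in nanoparticle formulations. Groups of n=6 mice; PBS and standard MC3 formulation as references.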

LDL-c = experiment: LDL levels in LDLr−/− mice after mRNA encoding the LDL receptor; format: in vivo, LDLR knockout mice; conditions: Mus musculus; Table 7b; LDLr−/− mice, 0.5 mpk, LDLr; read-out: LDL levels lipid/untreated LDLr−/− mice 0.5 mpk, LDLr
[2] = tested on: GFP expression in liver cells; experiment: Mouse liver immunohistochemistry (IHC) with GFP mRNA; format: in vivo; conditions: FIG. 11, i.v., 0.5 mpk, 6 h (MC3, CD-1) or 8 h (Compound 4, LDLR knockout)
Procedure: FIG. 11 is a pair of images comparing the results of a mouse liver immunohistochemistry (IHC) using mRNA expressing green fluorescent protein (GFP) after administration of nanoparticle compositions containing Compound 4 and MC3.
FIG. 16 is a graph showing GFP levels in the livers of LDLR knockout mice at 30 min to 24 h after intravenous administration of an eGFP RNA in a lipid composition containing Compound 4. The liver GFP levels were determined via IHC. The square markers represent the number of GFP positive cells following administration of a dose of 0.1 mpk of the composition. The circular markers represent the number of GFP positive cells following administration of a dose of 0.5 mpk of the composition.

Luc expression [3] = experiment: ApoE dependence of luciferase expression (ApoE knockout vs. wild-type mice); format: in vivo; conditions: 0.5 mpk, 6 h
Text: FIG. 17 is a pair of graphs showing the ApoE dependence of luciferase (“Luc”) expression following administration of a composition containing Luc mRNA and Compound 4 to mice at a dose 0.5 mpk. The expression following administration of a composition containing Luc mRNA and MC3 is presented for comparison. […] The % change in Luc expression in livers of ApoE knockout vs. wild-type mice (i.e., (WT mean expression-KO mean expression)/WT mean expression]*100%) was 91.9% for Compound 4 and 97.5% for MC3. […] The % change in expression in spleens of ApoE knockout vs. wild-type mice was 4.34% for Compound 4 and 72.2% for MC3. Numbers 1-4 refer to the following: 1: Composition containing Compound 4, administered to ApoE knockout mice; 2: Composition containing Compound 4, administered to wild-type mice; 3: Composition containing MC3, administered to ApoE knockout mice; 4: Composition containing MC3, administered to wild-type mice.

[4] = Lipid clearance: % dose remaining in mouse liver 6 h and 24 h after administration of nanoparticle compositions; format: in vivo, CD-1 mice
Text: (§1) In contrast, hEPO expression in rats induced by administration of a nanoparticle composition including a compound according to one of formulae (I), (Ia1)-(Ia6), (Ib), (II), (IIa), (III), and (IIIa) was substantially […] than that measured for MC3. […] Table 7c and 7d show additional protein expressions and clearance data from compositions with various compounds disclosed herein as compared to with MC3.

Luc expression [5] = experiment: Luc expression in CD-1 mice (AUC relative to MC3); format: in vivo; conditions: Table 7c
Procedure: FIG. 15 is a graph summarizing luciferase expression levels at 6 h after administration of nanoparticle compositions containing compounds of the disclosure to CD-1 mice at a dose of 0.5 mpk. Total light flux values were acquired via body luminescent imaging (BLI) 6 h after administration. In this Figure, the numbers 1-7 and 10 refer to the compositions containing Compounds 4-10 and MC3 respectively.
as §1

[6] = Table 2, mice, i.v., 0.5 mg/kg, 3 hours
[7] = Table 17-2, mice, i.v., 0.5 mg/kg
[8] = Table 19-2, mice, i.v., 0.5 mg/kg
[9] = Table 20-2, mice, i.v., 0.5 mg/kg
[10] = Table 21-2, mice, i.v., 0.5 mg/kg

For CCCCCCCCCCCCN(CCCCCCCCCCCC)CCN(CCCCCCCCCCCC)CCN1CCN(CCN(CCCCCCCCCCCC)CCCCCC(=O)OCCCCC)CC1 [Compound 12, Pentyl 6-((2-(4-(2-((2-(didodecylamino)ethyl)(dodecyl)amino)ethyl)piperazin-1-yl)ethyl)(dodecyl)amino)hexanoate], the “hEPO expression in mice compared with MC3 (in words)” value (hEPO mRNA expression; Table 7a, mice) was “substantially higher”, the “Lipid/MC3 hEPO CD-1 (mice)” value (hEPO mRNA expression) was 2.3 and the “Total Flux 3 hours” value [1, 6] was 1.06E+10. For the same compound, the “Total Flux 6 hours” value ([1]; Table 2, mice, i.v., 0.5 mg/kg) was 1.38E+10, the “Total Flux 24 hours” value ([1]; Table 2, mice, i.v., 0.5 mg/kg) was 6.03E+08 and the “Luc expression in mice compared with MC3 (in words)” value ([1]; Table 7a) was “significantly lower”.
For CCCCCC=CCC=CCCCCCCCCC(CCCCCCCCC=CCC=CCCCCC)OC(=O)CCCN(C)C (stereo not shown) [MC3, heptatriaconta-6,9,28,31-tetraen-19-yl 4-(dimethylamino)butanoate, reference compound], the “Lipid/MC3 hEPO CD-1 (mice)” value (hEPO mRNA expression) was 1, the response vs control in vivo at 0.5 mg/kg (LDL-c) was 55% and the “GFP protein expression in liver cell types (in words)” value [2] was “observed in both hepatocytes and Kupffer cells”. For the same compound, the “% change in Luc expression in livers of ApoE knockout vs. wild-type mice” value (Luc expression [3]; FIG. 17 Graph A, liver) was 97.5%, the “% change in expression in spleens of ApoE knockout vs. wild-type mice” value (Luc expression [3]; FIG. 17 Graph B, spleen) was 72.2% and the “Total Flux 3 hours” value [1, 6] was 1.63E+10. The “Total Flux 6 hours” value ([1]; Table 2, mice, i.v., 0.5 mg/kg) was 1.73E+10, the “Total Flux 24 hours” value ([1]; Table 2, mice, i.v., 0.5 mg/kg) was 1.16E+09 and the “Total Flux 3 hours” value ([1]; Table 17-2, mice, i.v., 0.5 mg/kg, 3 hours) was 1.63E+10. For the same compound, the “Total Flux 6 hours” value [1, 7] was 2.13E+10, the “Total Flux 24 hours” value [1, 7] was 1.01E+09 and the “Total Flux 3 hours” value ([1]; Table 19-2, mice, i.v., 0.5 mg/kg, 3 hours) was 1.53E+10. For the same compound, the “Total Flux 6 hours” value [1, 8] was 1.73E+10, the “Total Flux 24 hours” value [1, 8] was 1.13E+09 and the “Total Flux 3 hours” value ([1]; Table 20-2, mice, i.v., 0.5 mg/kg, 3 hours) was 1.73E+10. For the same compound, the “Total Flux 6 hours” value [1, 9] was 1.94E+10, the “Total Flux 24 hours” value [1, 9] was 8.48E+08 and the “Total Flux 3 hours” value ([1]; Table 21-2, mice, i.v., 0.5 mg/kg, 3 hours) was 1.69E+10. For the same compound, the “Total Flux 6 hours” value [1, 10] was 2.87E+10, the “Total Flux 24 hours” value [1, 10] was 2.23E+10 and the “total flux after 3 hours, rank within the named table (in words)” value ([1]; mice, i.v., 0.5 mg/kg, 3 hours) was “highest after 3 hours”. For the same compound, the “total flux / Luc expression, rank within the named table (in words)” value ([1]; mice, i.v., 0.5 mg/kg, each time point) was “highest total flux; also recorded: highest luciferase expression”, the “% Dose remaining 6 h CD-1 mice” value ([4]; 6 h, CD-1 mice) was 88% and the “% Dose remaining 24 h CD-1 mice” value ([4]; 24 h, CD-1 mice) was 55%. The “% Dose Remaining 6 hr” value ([4]; Table 7c, 6 hr) was 55.70%, the “% Dose Remaining 24 hr” value ([4]; Table 7c, 24 hr) was 55.43% and the “% dose remaining Mouse liver (24 h)” value ([4]; mouse liver, 24 h) was 55%. The “AUC (p/s*h)” value (Luc expression [5]) was 1.42E+11 p/s*h.
